Measured values as given in US7488716B2 (priority 2001, dated 2009).
Where no end group is shown, it is not given here.

Tests used:
GLP-1 receptor [1] = biological target: T1, GLP-1 receptor (Rattus norvegicus, UniProt P32301); experiment: Competitive binding of peptide to the GLP-1 receptor in RINm5F cell plasma membranes (125I GLP-1); details: read-out: GLP1 RIN IC50
T1 construct: endogenous in cells; host or cells: RINm5F cells
T1 sequence (P32301 22-463): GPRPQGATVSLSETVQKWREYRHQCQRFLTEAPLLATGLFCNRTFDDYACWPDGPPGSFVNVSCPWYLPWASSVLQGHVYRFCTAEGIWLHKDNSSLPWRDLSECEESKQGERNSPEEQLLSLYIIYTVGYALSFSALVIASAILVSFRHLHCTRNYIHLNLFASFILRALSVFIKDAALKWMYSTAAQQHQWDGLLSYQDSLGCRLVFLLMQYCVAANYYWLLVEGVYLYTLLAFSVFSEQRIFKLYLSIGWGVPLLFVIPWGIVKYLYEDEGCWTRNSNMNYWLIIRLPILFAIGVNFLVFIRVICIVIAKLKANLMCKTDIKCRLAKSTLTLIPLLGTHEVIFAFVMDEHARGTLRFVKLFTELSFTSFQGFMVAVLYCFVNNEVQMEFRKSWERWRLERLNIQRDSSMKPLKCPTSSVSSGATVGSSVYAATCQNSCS
Procedure: Flasks of RINm5F cells were washed with PBS, scraped in 20 mM Hepes-1 mM EDTA-250 mM sucrose buffer containing protease inhibitors (HES) and homogenized in a dounce homogenizer followed by repeated resuspension through a 23 gauge needle. Unbroken cells and nuclei were removed by centrifugation at 500×g for 5 minutes. The pellet was resuspended in HES buffer using a 23 gauge needle and the centrifugation was repeated. The supernatants from the two spins were combined and centrifuged at 40,000×g for 20 min. The resulting plasma membrane pellet was resuspended in HES buffer using a 23 gauge needle followed by a 25 gauge needle. Membranes were stored at −80° C. until use.
(§1) Competitive binding of some polypeptides of the invention to RINm5F cell plasma membranes was measured as follows. Ninety-six-well GF/C filtration plates (Millipore, Bedford, Mass.) were blocked with 0.3% PEI for at least one hour and washed twice with binding buffer consisting of 20 mM Tris, 2 mM EDTA, pH 7.5, 1 mg/ml BSA, and 1 mg/ml bacitracin. […] The plates were dried, scintillant was added to each well, and cpm per well determined using a Wallac Microbeta counter.

glucagon receptor = biological target: T2, glucagon receptor (Rattus norvegicus, UniProt P30082); experiment: Competitive binding of peptide to the glucagon receptor in rat liver plasma membranes (125I glucagon)
T2 construct: glucagon receptor present in the plasma membranes isolated from rat liver; from tissue; host or cells: rat liver plasma membranes
Procedure: The wet weight of the livers was determined and the tissue minced in 5 volumes of ice cold TES buffer and a slurry prepared using a polytron. All buffers and spins were kept at 4° C. The slurry was further homogenized using three strokes of a handheld dounce homogenizer. The homogenate was passed through several layers of cheesecloth and spun at 25,000×g for 10 minutes. Pellets were homogenized in 22.1 ml TES buffer using 10 strokes of a handheld dounce homogenizer. Twenty-seven point nine milliliters of 2.4 M sucrose in TE was added and mixed well. The homogenate was distributed among several tubes, and each tube was overlaid with 7 ml of TES buffer. The tubes were spun at 120,000×g for 60 minutes. The plasma membranes were removed from the interface that formed during the spin, diluted in TES and concentrated using a 15 minute spin at 200,000×g. The resulting pellet was again homogenized in 9.8 ml TES buffer, combined with 10.3 ml 2.4M sucrose, overlaid with 7 ml TES, and centrifuged at 180,000×g for 30 min. […] The final pellet was resuspended in TES. Plasma membranes were stored at −80° C. until ready for use.
as §1, with “rat liver” for “RINm5F cell”, “0.1%” for “0.3%”

GLP-1 receptor [2] = biological target: T1, GLP-1 receptor; experiment: Peptide signaling through GLP-1 receptor, cAMP scintillation proximity assay in RINm5F cells; type: cell-based; details: for GLP1 Relative Potency: EC50 of native GLP-1 (7-36) divided by EC50 of polypeptide x 100, cAMP in RINm5F cells
Procedure: The media was removed and the cells were washed twice with PBS. […] For assay of peptides conjugated with fatty acid, the BSA was omitted from the incubation buffer. The incubation buffer was removed, and the cells were lysed in the lysis reagent provided with the cAMP Scintillation Proximity Assay (SPA) direct screening assay system (Amersham Pharmacia Biotech Inc, Piscataway, N.J.). The amount of cAMP (in pmol) present in the lysates was determined following instructions provided with this kit.
The amount of cAMP (in pmol) produced at each concentration of peptide was plotted and analyzed by nonlinear regression using Prizm software to determine the EC50 for each peptide.

[3] = system: glucagon-mediated elevation in blood glucose; experiment: Glucagon-stimulated glucose production in fed Wistar rats; type: in vivo, rat; details: iv, 0.3 nmol/kg glucagon plus 1 nmol/kg peptide
Procedure: The anesthesia was withdrawn and the conscious rats were tail-bled again after 10, 20 and 30 min.
Glucose inhibition was determined by analyzing the area under the glucose curve after subtracting the basal glucose level (dAUC).

rat hepatocytes = experiment: Glucose release from rat hepatocytes (inhibition of glucagon mediated glucose production); type: cell-based; details: 1 nM glucagon, 100 nM peptide, 3 trials
Procedure: Hepatocytes were isolated according to a modified procedure of Berry and Friend (J. Cell. Biol. 43:506, 1969). A fed male Wistar rat was anesthetized with sodium pentobarbital (55 mg/kg, i.p.). The rat was placed on its back on the tray of the liver perfusion apparatus (37° C.), and its limbs were secured with laboratory tape. The ventrical surface was cleaned with 70% alcohol, and the abdominal cavity was opened with scissors to expose the liver, portal vein, hepatic artery and the posterior vena cava. Ligatures were placed loosely around the three vessels. A cannula was inserted into the portal vein and was secured with the ligature. […] An aliquot of cells was diluted with buffer, stained with 0.4% Trypan Blue and counted. […]
Rat hepatocytes were added into a flat bottom 96 well plate (2×10^5/100 μl/well) and pre-incubated in a 37° C. incubator with constant shaking and under 95% O2/5% CO2 flow for 10 minutes. […] The resulting supernatant was analyzed for glucose with hexokinase and glucose-6-phosphate dehydrogenase (Methods of Enzymatic Analysis, H. U. Bermeyer, Ed., Academic Press) and the A340 read on a fMAX plate reader (Molecular Devices, Sunnyvale, Calif.).
Glucose output was calculated after subtracting the amount of glucose produced in the unstimulated hepatocytes from each data point and the percent inhibition was calculated.

perfused rat islets = experiment: Insulin secretion by perfused rat islets; type: cell-based; details: 50 nM peptide, 8 mM glucose
Procedure: Sprague Dawley rats (275-320 g) were used as the source of donor islets. Briefly, the pancreas was filled with 10 ml of cold reconstituted Liberase RI (Boehringer Manheim), harvested and incubated with additional 5 ml enzyme solution in water bath for 30 minutes. Tissue suspension was washed twice with cold 10% FBS/Hanks buffer (Gibco), resuspended in 8 ml 25% ficoll (Sigma) and then layered with 5 ml each of 23%, 20% and 11% ficoll. The islets in the 20% layer after centrifugation were removed, washed twice with cold 10% FBS/Hank buffer and resuspended in 10% FBS/RPMI 1640 media (Sigma).
Insulin secretion of perfused rat islets mediated by some peptides of the invention was measured as follows. The bi-phasic responses of insulin release stimulated by these polypeptides were tested by islet perfusion. Fifty islets were loaded in the perifusion chamber and perifused with HEPES-KRB containing 3 mM glucose at 37° C. After 60 min, islets were exposed to buffer containing 8 mM glucose with or without peptide (50 nM) and perifused for another 30 min. Fractions of perifusate were collected at 1 or 5 minute intervals for insulin determination. Insulin was measured using an ELISA kit (Alpco Diagnostics, Windham, N.H.).

[4] = system: dispersed rat islet cells; experiment: Insulin secretion from dispersed rat islet cells; type: cell-based; details: 50 nM peptide, fold over control
Procedure: Insulin secretion of dispersed rat islets mediated by a number of peptides of the invention was measured as follows. Islets of Langerhans were isolated from SD rats (200-250 g) through a digestion procedure using collagenase. Dispersed islet cells were prepared through treatment with trypsin, seeded into 96 V-bottom plates and pelleted. Cells were cultured overnight in media. Media was aspirated and the cells were pre-incubated with Krebs-Ringer-HEPES buffer containing 3 mM glucose for 30 minutes at 37° C. Pre-incubation buffer was removed and cells were stimulated with Krebs-Ringer-HEPES buffer containing the appropriate glucose concentration (e.g., 8 mM), with and without peptides for an appropriate time at 37° C. […] A portion of supernatant was removed and its insulin content was measured by SPA. The results are expressed as fold over control (FOC). At a concentration of 50 nM, the polypeptide having an amino acid sequence shown in SEQ ID NO:27 increased insulin secretion from dispersed islet cells approximately 3-fold.

[5] = system: glucagon-mediated elevation in blood glucose; experiment: Glucagon-stimulated glucose production in fed Balb/C mice; type: in vivo
Procedure: The change in glucose over the 15 minutes was calculated for each mouse.

[6] = Intraperitoneal glucose tolerance testing (IPGTT) in rats or mice; type: in vivo; details: ipGTT in mice 3 hours post dosing with 100 μg/kg peptide
Procedure: Blood glucose levels during intraperitoneal glucose tolerance testing in rats or mice by some polypeptides of the invention were measured as follows. The in vivo activity of the polypeptides of the invention when administered subcutaneously was examined in rats or mice. Rats or mice fasted overnight were given a subcutaneous injection of control or peptide (100 μg/kg). Basal blood glucose was measured prior to administration of peptides or three or 17 hours after administration of derivatized peptides, and the rats or mice were given 2 g/kg of glucose intraperitoneally. Blood glucose was measured again after 15, 30 and 60 minutes in rats or 30 and 60 minutes in mice.

T2 sequence (P30082 27-485): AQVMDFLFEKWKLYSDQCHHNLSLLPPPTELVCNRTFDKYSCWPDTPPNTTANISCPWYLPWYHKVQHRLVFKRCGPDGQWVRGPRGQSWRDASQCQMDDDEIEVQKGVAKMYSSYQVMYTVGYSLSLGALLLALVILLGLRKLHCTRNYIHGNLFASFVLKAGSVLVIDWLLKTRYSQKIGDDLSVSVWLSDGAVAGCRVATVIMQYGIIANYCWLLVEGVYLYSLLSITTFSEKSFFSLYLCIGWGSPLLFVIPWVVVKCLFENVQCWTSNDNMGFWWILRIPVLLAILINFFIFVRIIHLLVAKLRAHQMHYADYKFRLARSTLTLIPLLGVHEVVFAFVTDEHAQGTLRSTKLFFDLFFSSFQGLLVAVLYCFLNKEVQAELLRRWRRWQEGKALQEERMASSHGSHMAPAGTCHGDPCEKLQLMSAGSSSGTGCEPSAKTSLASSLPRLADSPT

Substance	IC50 (GLP-1 receptor [1])	IC50 (glucagon receptor)	GLP1 Relative Potency (GLP-1 receptor [2])	Emax (GLP-1 receptor [2]; RIN-m5F, read-out: % GLP1 max)	Inhibition of glucagon-mediated elevation in blood glucose (dAUC) [3]	Inhibition of glucagon mediated glucose production (rat hepatocytes)	Increase of insulin secretion from perfused islets (perfused rat islets)	Increase of insulin secretion from dispersed islet cells [4]	% GLP1 max (GLP-1 receptor [2]; maximal cAMP activity relative to native GLP-1 (7-36), RINm5F cells)	% Inhibition ([5]; Balb/C mice, 10 μg/kg glucagon, 100 μg/kg peptide sc 17 h before)	Glucose 15 min ([5]; Balb/C mice, 15 min after 10 μg/kg iv glucagon)	Glucose Delta (15 − 0) ([5]; Balb/C mice, change over 15 min after glucagon)	Glucose -Vehicle delta ([5]; Balb/C mice, delta minus vehicle group delta)	% of 10 μg/kg Glucagon ([5]; Balb/C mice, glucose change relative to glucagon alone)	Glucose 0 min ([5]; Balb/C mice, just prior to 10 μg/kg iv glucagon, peptide 100 μg/kg sc 17 h before)	In vivo % Decrease glucagon stimulated blood glucose ([5]; glucagon challenge in mice 17 hours post dosing with 100 μg/kg peptide)	In vivo Decrease IpGTT AUC [6]
HSQGTFTSDYAKYLDARRAKEFIAWLVKGR-NH2 [G27]	2.2 nM	69.3 nM	13.4%	98.1%	63%	47%	approximately 2 fold										
HSQGTFTSDYARYLDARRAREFIKWLVRGRC(43kD) (HSQGTFTSDYARYLDARRAREFIKWLVRGRC(PEG 43kD); listed as Homo sapiens) [G4185, 43kD PEG linked to the cysteine residue]			0.7%					approximately 3 fold	98.3%	31%	150 mg/dL	75 mg/dL	59 mg/dL	69%	75 mg/dL	31%	36%
